# Reference: paper PMC5537305, “Photo-enhanced Aqueous Solubilization of an Azo-compound” (Scientific Reports, 2017)
# What was measured:
# [1] = Aqueous solubilization of 3 under irradiation at various wavelengths (xenon flash lamp, 96-well plate); format: physicochemical; settings: for solubility at 1 h: phosphate buffer, 21 °C, pH 7.4, aqueous buffer, thermodynamic from solid, read-out: Aqueous solubilized 3; for solubility at 1 h / Cis ratio: 1 h
# Experimental: Table S4. Aqueous solubilization and cis ratio of 3 under irradiation at various wavelengths through filters of […]
# Illumination was performed with a xenon lamp using repeated cycles of irradiation and shaking (5000 flashes, then shaking for 10 sec) through filters of various bandwidths at room temperature (20-22 °C) for 1 h. The cis ratio in the aqueous solution was evaluated by HPLC immediately after filtration, based on peak area. […]
# For irradiation at various UV wavelengths, 3 (about 0.1 mg) was ground and taken up in 1/15 M phosphate buffer (pH 7.4, 0.2 mL) in a well of a 96-well white plate. Illumination over a range of wavelength from 355-540 nm was performed using a plate reader EnVision equipped with a xenon flash lamp (35 W, 500 Hz), with excitation filters of appropriate bandwidths. A protocol of irradiation and shaking cycles (5000 flashes, then shaking for 10 sec) was repeated for 1 h at room temperature (20-22 °C). Then, the suspension was filtered through a Millipore Millex-LG (0.20 µm).
# [2] = Aqueous dissolution in the dark of UV-irradiated crystals of 3; format: physicochemical; settings: for cis ratio contained in the solution, on average: dissolved in the dark; for cis ratio / solubility at 1 h: 37 °C, 1 h; for solubility at 1 h: phosphate buffer, thermodynamic from solid, read-out: Aqueous solubilized 3
# From the text: At the photostationary state under UV irradiation, the equilibria shown in Fig. 3a should be in balance. Here, we are interested in the transient process, i.e., how cis-3 in solution increases when UV irradiation is started. There are two possible routes for generating cis-3 in solution from trans-3 in the solid state: route (i) and (ii). Route (i) is clearly possible, because the process trans solution → cis solution is easily driven by UV irradiation (Fig. S3a). The remaining question is whether cis isomerization of solid 3 is induced under UV irradiation, that is, whether route (ii) also operates. To answer this question, we investigated the aqueous dissolution in the dark of UV-irradiated crystals of 3. The UV-irradiated crystals were clearly more soluble than the unirradiated crystals (Fig. 3b and Table S7). In addition, the cis ratio of UV-irradiated crystals contained in the solution was higher than that of unirradiated crystals (14% vs 4% on average, Table S7). […] Therefore, we conclude that routes (i) and (ii) both operate upon UV irradiation.
# Figure 3 (a) Possible equilibria and routes for generating cis-3 in solution. (b) Kinetics of aqueous dissolution of UV-irradiated crystals of 3, measured in the dark. Crystals of 3 were irradiated with 365 nm LED light (344 mW/cm^2) at 37 °C for 3 h. The UV-irradiated crystals and unirradiated crystals were each shaken with phosphate buffer in the dark at 37 °C for 1 h. Data are the mean ± SD of three individual experiments. The asterisk indicates a significant difference (*p < 0.05) from the unirradiated crystals according to the unpaired, two-sided Student’s t-test. […]
# Table S7. Aqueous dissolution of UV-irradiated crystals of 3 measured in the dark, and the cis ratio contained […]
# Unirradiated crystals UV-irradiated crystals entry Aqueous solubilized 3 cis ratio (%) Aqueous solubilized 3 cis ratio (%) […]
# Crystals of 3 were irradiated with 365 nm LED light (344 mW/cm2) at 37 °C for 3 h. It should be noted that […]
# The UV-irradiated crystals and unirradiated crystals were each shaken in phosphate buffer in the dark at 37 °C for 1 h.
# [3] = wavelength 380 nm, bandwidth 10 nm, room temperature
# [4] = wavelength 405 nm, bandwidth 8 nm, room temperature
# [5] = wavelength 450 nm, bandwidth 8 nm, room temperature
# [6] = wavelength 485 nm, bandwidth 14 nm, room temperature
# [7] = wavelength 535 nm, bandwidth 25 nm, room temperature
# [8] = wavelength 540 nm, bandwidth 8 nm, room temperature
compound,measurement,setting,value
CC(C)n1nc(/N=N/c2ccccc2)c2c(N)ncnc21 [Compound 3],trans ratio at photostationary state (maximum),[1]; irradiation at 535 nm,93%
same,solubility at 1 h,"[1]; wavelength 355 nm, bandwidth 40 nm, room temperature (20-22 °C)",4.8 µg/mL
same,solubility at 1 h,[1]; [3],2.8 µg/mL
same,solubility at 1 h,[1]; [4],2.4 µg/mL
same,solubility at 1 h,[1]; [5],0.75 µg/mL
same,solubility at 1 h,[1]; [6],0.47 µg/mL
same,solubility at 1 h,[1]; [7],0.57 µg/mL
same,solubility at 1 h,[1]; [8],0.28 µg/mL
same,Cis ratio,"[1]; wavelength 355 nm, bandwidth 40 nm, room temperature",90%
same,Cis ratio,[1]; [3],90%
same,Cis ratio,[1]; [4],78%
same,Cis ratio,[1]; [5],44%
same,Cis ratio,[1]; [6],20%
same,Cis ratio,[1]; [7],7%
same,Cis ratio,[1]; [8],7%
same,"cis ratio contained in the solution, on average",[2]; UV-irradiated crystals,14%
same,cis ratio,"[2]; UV-irradiated crystals, entry 1, dark",21%
same,cis ratio,"[2]; UV-irradiated crystals, entry 2, dark",14%
same,cis ratio,"[2]; UV-irradiated crystals, entry 3, dark",7%
same,cis ratio,"[2]; Unirradiated crystals, entry 1, dark",5%
same,cis ratio,"[2]; Unirradiated crystals, entry 2, dark",3%
same,cis ratio,"[2]; Unirradiated crystals, entry 3, dark",4%
same,solubility at 1 h,"[2]; aqueous buffer, Unirradiated crystals, entry 2, dark",2.6 µg/mL
same,solubility at 1 h,"[2]; pH 7.4, aqueous buffer, UV-irradiated crystals (365 nm LED 344 mW/cm2, 37 °C, 3 h), entry 1, dark",3.7 µg/mL
same,solubility at 1 h,"[2]; pH 7.4, aqueous buffer, UV-irradiated crystals, entry 2, dark",3.4 µg/mL
same,solubility at 1 h,"[2]; pH 7.4, aqueous buffer, UV-irradiated crystals, entry 3, dark",3.2 µg/mL
same,solubility at 1 h,"[2]; pH 7.4, aqueous buffer, Unirradiated crystals, entry 1, phosphate buffer, dark",2.8 µg/mL
same,solubility at 1 h,"[2]; pH 7.4, aqueous buffer, Unirradiated crystals, entry 3, dark",3 µg/mL
same,"cis ratio contained in the solution, on average",[2]; unirradiated crystals,4%
